This is an account of results in patent US11324714B2 (priority 2008, dated 2022).

This data set deals with advanced lymphomas. The data set can be described thus: Phase II multi-center trial in patients with advanced lymphomas. The format is in vivo, human. As to the method: A Phase II multi-center trial of SGLU-1 (darinaparsin) was conducted in patients diagnosed with advanced lymphomas. Eligible patients required therapy and received at least 1 prior therapy. Patients received 300 mg/m^2 of darinaparsin intravenously for 5 consecutive days every 28 days (1 cycle) and were then evaluated for efficacy and safety by standard criteria. Treatment continued until toxicity or progression. To date the study has accrued 22 patients (15 non Hodgkin's [NHL], 7 Hodgkin's); 12 are male and 10 are female. Median age at baseline was 60.5 years (range: 28-80), ECOG performance status was ≤2, and median number of prior therapies was 3 (range: 1-6). Thirteen subjects have received at least 2 cycles of SGLU-1 and are evaluable for efficacy. Of these, 1 (diagnosed with peripheral T-cell lymphoma (PTCL)) has achieved a complete response (CR), 3 (diagnosed with diffuse large B-cell, marginal zone, and Hodgkin's nodular sclerosis, respectively) have achieved partial responses (PRs), and 2 patients with NHL have achieved stable disease (SD). In the patient with marginal zone lymphoma who achieved PR, no evidence for macroscopic disease was present, but microscopic disease was detectable on random biopsies from normal appearing gastric mucosa. All responders had been heavily pretreated (PTCL: CHOP (cyclophosphamide, doxorubicin, vincristine, and prednisolone)×6, ICE (ifosfamide, carboplatin and etoposide)×1, and EPOCH (etoposide, vincristine, doxorubicin, cyclophosphamide, and prednisone)×2; diffuse B-cell: RCHOP (rituximab, cyclophosphamide, doxorubicin, vincristine, and prednisolone)×5, RICE (rituximab, ifosfamide, carboplatin and etoposide)×3, and radiation therapy; marginal zone: rituximab×8, RCVP (rituximab, cyclophosphamide, vincristine and prednisolone)×1, and gemcitabine×1; and Hodgkin's: ICE×1, CBV (cyclophosphamide, carmustine and etoposide)×1, gemcitabine+MDX-060 (Medarex)×6). A total of 49 cycles of SGLU-1 have been administered. The only Grade 3 adverse event (AE) considered drug-related was wheezing. A total of 12 subjects have reported 37 serious adverse events (SAEs) while on study. Of these, only 2 had SAEs that were considered drug-related (neutropenic fever, fall). […] Initial responses (1 CR, 3 PRs, 2 SDs) have been observed among 13 evaluable patients.

The mark [1] stands for this setting: 300 mg/m^2 i.v. 5 consecutive days every 28 days, of 13 evaluable subjects.

`C[As](C)SC[C@H](NC(=O)CC[C@H](N)C(=O)O)C(=O)NCC(=O)O` [SGLU-1, S-(dimethylarsino) glutathione]: under setting [1], the “complete response (CR)” value was determined as 1 patients and the “partial responses (PRs)” value is on record as 3 patients. Moreover, where the note is “22 patients, 49 cycles”, the “Grade 3 adverse event (AE) considered drug-related” value is “wheezing”, the “serious adverse events (SAEs) reported” value came out at 37 and the “subjects reporting serious adverse events (SAEs)” value is on record as 12 subjects. Besides, under “heavily pretreated patients with advanced lymphoma”, the tolerability result was “very well tolerated”. Besides, the “subjects with SAEs considered drug-related” value (neutropenic fever, fall) was 2 subjects.
